Experimental data reported in patent US20240425464A1, “Substituted Monohydrazides as Potent Antifungal Agents” (University of Kentucky Research Foundation, priority 2023, published 2024).
≈ marks a conversion by molar mass, not a printed value. Like-named read-outs stand apart in the source and are kept apart here.

Tested on: C. auris strain AR Bank #390 (L)
Assay: MIC determination by in vitro antifungal assay
Type: cell-based, Candida auris
Experimental: The antifungal agent amphotericin B (AmB) was purchased from VWR (Radnor PA, USA). AmB was dissolved in DMSO at a final concentration of 5 mg/mL and was stored at −20° C., protected from light. Candida albicans American Type Culture Collection (ATCC) 10231 (strain A), C. albicans ATCC 64124 (B), and C. albicans ATCC MYA-2876 (C) were obtained from Utah State University. C. albicans ATCC 90819 (D), C. albicans ATCC MYA-2310 (E), C. albicans ATCC MYA-1237 (F), C. albicans ATCC MYA-1003 (G), Candida glabrata ATCC 2001 (H), Candida krusei ATCC 6258 (I), Candida parapsilosis ATCC 22019 (J), Cryptococcus neoformans ATCC MYA-895 (M), Aspergillus terreus ATCC MYA-3633 (N), and Aspergillus flavus ATCC MYA-3631 (0) were obtained from the American Type Culture Collection (ATCC; Manassas, VA, USA). Aspergillus nidulans ATCC 38163 (P) was obtained from University of Kentucky. Clinically derived Aspergillus fumigatus NRRL 163 (Q), A. fumigatus NRRL 5109 (R), and A. fumigatus NRRL 6113 (S) were obtained from Northern Regional Research Laboratory (NRRL). Candida auris 384 (K), C. auris 390 (L), and fungal strains 381-400 (including 10 C. auris (AR Bank #381-390), 3 Candida duobushaemulonii (AR Bank #391, AR Bank #392, and AR Bank #394), 2 Candida haemulonii (AR Bank #393 and AR Bank #395), 1 Kodameae ohmeri (AR Bank #396), 1 C. krusei (AR Bank #397), 1 Candida lusitaniae (AR Bank #398), and 2 Saccharomyces cerevisiae strains (AR Bank #399 and AR Bank #400)) were part of a larger fungal library from the AR Bank maintained by the Centers for Disease Control and Prevention (CDC; Atlanta, GA, USA). Filamentous fungi and yeasts were cultivated at 35° C. in RPMI 1640 medium (with L-glutamine, without sodium bicarbonate, Sigma-Aldrich, St. Louis, MO) buffered to a pH of 7.0 with 0.165 M morpholinepropanesulfonic acid (MOPS) buffer (Sigma-Aldrich). For cytotoxicity assays, HepG2 and the mouse macrophage cell line J774A.1 were obtained from University of Kentucky. The human embryonic kidney cell line, HEK-293, was bought from the ATCC. Mammalian cells were grown in Dulbecco's Modified Eagle's Medium (DMEM) (from VWR) with 10% fetal bovine serum (FBS) (from VWR) and 1% Pen/Strep (from ATCC). Cell lines were cultured at 37° C. with 5% CO2 and passaged by trypsinization with 0.05% trypsin: 0.53 mM EDTA (from Sigma-Aldrich).
From the actively growing yeast culture, 100 µL were then transferred to 900 μL of RPMI 1640 medium and re-adjusted to achieve OD600 of 0.12 (˜1×10^6 CFU/mL). The cell suspension was further diluted to achieve 1:100 in RPMI 1640 medium.
Finally, the activity of these monohydrazides was explored against […] non-Candida strains: Cryptococcus neoformans ATCC MYA-895 (M), Aspergillus terreus ATCC MYA-3633 (N), Aspergillus flavus ATCC MYA-3631 (O), Aspergillus nidulans ATCC 38163 (P), Aspergillus fumigatus NRRL 163 (Q), A. fumigatus NRRL 5109 (R), and A. fumigatus NRRL 6113 (S) (Tables 1A and 1B). The double dilution method was used with concentrations ranging from 0.06 to 31.3 j·tg mL^−1 for monohydrazides 1a-9j, and the commercially available positive antifungal control amphotericin B (AmB).

[1] = strain L = C. auris AR Bank # 0390 (Tables 1A/1B)
[2] = Candidozyma auris, C. auris AR Bank # 390 (L) (Table 2B), read-out: MIC
[3] = Candidozyma auris, strain L = C. auris AR Bank # 0390 (Tables 1A/1B), read-out: MIC
[4] = C. auris AR Bank # 390 (L) (Table 2B)
[5] = Candidozyma auris, C. auris AR Bank #390 (L), read-out: MIC

Structure (SMILES)	MIC [1] [μg/mL^−1]	MIC [3] [mg/L]	further results
COc1ccc(NNC(=O)c2ccc(F)cn2)cc1 [Compound 3f]	0.49		
O=C(NNc1ccc(F)cc1F)c1ncc(F)cc1F [Compound 7g]		1.95 (≈ 6.84 µM)	MIC [2]: 7.8 mg/L (≈ 27.3 µM)
O=C(NNc1ccc(Cl)cc1)c1cccc(F)n1 [Compound 5e]	7.8		MIC [4]: 7.8 μg/mL^−1
O=C(NNc1cccc(Cl)c1)c1ccccn1 [Compound 2b]	0.98		MIC (C. auris AR Bank #390 (L)): 0.49 μg/mL^−1
O=C(NNc1ccc(Cl)cc1)c1cnccn1 [Compound 9e]	3.9		MIC (C. auris AR Bank #390 (L)): 3.9 μg/mL^−1
O=C(NNc1ccc(F)cc1F)c1ccc(Br)cn1 [Compound 4g]		31.3 (≈ 95.4 µM)	
O=C(NNc1cc(Cl)cc(Cl)c1)c1cnccn1 [Compound 9j]		7.8 (≈ 27.6 µM)	
O=C(NNc1ccc(Cl)cc1)c1ncc(F)cc1F [Compound 7e]	7.8		MIC [4]: 7.8 μg/mL^−1
O=C(NNc1ccc(Cl)cc1)c1ccc(F)cc1F [Compound 1e]	>31.3		
COc1ccc(NNC(=O)c2cccc(F)n2)cc1 [Compound 5f]		1.95 (≈ 7.46 µM)	
O=C(NNc1ccc(Cl)cc1)c1ccc(F)cn1 [Compound 3e]	7.8		MIC [4]: 7.8 μg/mL^−1
O=C(NNc1cc(F)ccc1F)c1ccc(F)cc1F [Compound 1h]		15.6 (≈ 54.9 µM)	
O=C(NNc1ccc(F)cc1F)c1cccc(F)n1 [Compound 5g]		3.9 (≈ 14.6 µM)	MIC [2]: 3.9 mg/L (≈ 14.6 µM)
O=C(NNc1cc(F)ccc1F)c1ccccn1 [Compound 2h]		0.98 (≈ 3.93 µM)	MIC [5]: 0.98 mg/L (≈ 3.93 µM)
O=C(NNc1ccc(F)cc1F)c1ccc(F)cc1F [Compound 1g]		7.8 (≈ 27.4 µM)	
COc1cccc(NNC(=O)c2ccc(Br)cn2)c1 [Compound 4c]		0.98 (≈ 3.04 µM)	
COc1cccc(NNC(=O)c2nc(F)ccc2F)c1 [Compound 8c]		15.6 (≈ 55.9 µM)	
O=C(NNc1ccc(F)cc1)c1nc(F)ccc1F [Compound 8d]		0.98 (≈ 3.67 µM)	MIC [2]: 1.95 mg/L (≈ 7.3 µM)
O=C(NNc1cccc(Cl)c1)c1cnccn1 [Compound 9b]		0.98 (≈ 3.94 µM)	MIC [5]: 0.49 mg/L (≈ 1.97 µM)
O=C(NNc1cccc(F)c1)c1cccc(Br)n1 [Compound 6a]	1.95		
O=C(NNc1cccc(Cl)c1)c1ccc(F)cc1F [Compound 1b]		7.8 (≈ 27.6 µM)	MIC [2]: 7.8 mg/L (≈ 27.6 µM)

Structure (SMILES)	MIC [1] [μg/mL^−1]	MIC [3] [mg/L]	further results
O=C(NNc1ccc(Cl)cc1)c1nc(F)ccc1F [Compound 8e]	7.8		MIC [4]: 7.8 μg/mL^−1
O=C(NNc1ccc(F)cc1F)c1ccccn1 [Compound 2g]		0.12 (≈ 0.482 µM)	MIC [5]: 0.12 mg/L (≈ 0.482 µM)
O=C(NNc1ccc(F)cc1)c1cccc(Br)n1 [Compound 6d]		0.98 (≈ 3.16 µM)	MIC [2]: 3.9 mg/L (≈ 12.6 µM)
O=C(NNc1cccc(F)c1)c1ccc(F)cn1 [Compound 3a]	0.98		
O=C(NNc1ccc(Cl)cc1)c1ccccn1 [Compound 2e]	1.95		MIC (C. auris AR Bank #390 (L)): 1.95 μg/mL^−1
O=C(NNc1cc(F)cc(F)c1)c1cnccn1 [Compound 9i]		1.95 (≈ 7.79 µM)	
COc1cccc(NNC(=O)c2ccc(F)cn2)c1 [Compound 3c]	0.98		MIC [4]: 3.9 μg/mL^−1
COc1ccc(NNC(=O)c2cccc(Br)n2)cc1 [Compound 6f]		1.95 (≈ 6.05 µM)	
O=C(NNc1cc(Cl)cc(Cl)c1)c1ccc(F)cc1F [Compound 1j]		> 31.3	MIC [2]: > 31.3 mg/L
O=C(NNc1ccc(F)cc1)c1ccccn1 [Compound 2d]		0.98 (≈ 4.24 µM)	MIC [5]: 0.98 mg/L (≈ 4.24 µM)
COc1ccc(NNC(=O)c2cnccn2)cc1 [Compound 9f]		0.49 (≈ 2.01 µM)	MIC [5]: 0.98 mg/L (≈ 4.01 µM)
O=C(NNc1ccc(F)cc1)c1cccc(F)n1 [Compound 5d]		0.98 (≈ 3.93 µM)	MIC [2]: 1.95 mg/L (≈ 7.82 µM)
O=C(NNc1ccc(F)cc1F)c1cnccn1 [Compound 9g]		0.98 (≈ 3.92 µM)	MIC [5]: 0.98 mg/L (≈ 3.92 µM)
O=C(NNc1cccc(F)c1)c1cnccn1 [Compound 9a]	0.98		
O=C(NNc1cc(Cl)cc(Cl)c1)c1ccccn1 [Compound 2j]		1.95 (≈ 6.91 µM)	MIC [5]: 3.9 mg/L (≈ 13.8 µM)
O=C(NNc1ccc(F)cc1)c1ccc(F)cn1 [Compound 3d]	0.98		MIC [4]: 3.9 μg/mL^−1
COc1ccc(NNC(=O)c2ccc(Br)cn2)cc1 [Compound 4f]		1.95 (≈ 6.05 µM)	
O=C(NNc1cccc(F)c1)c1ccccn1 [Compound 2a]	0.33		MIC (C. auris AR Bank #390 (L)): 0.24 μg/mL^−1
COc1ccc(NNC(=O)c2ccc(F)cc2F)cc1 [Compound 1f]		1.95 (≈ 7.01 µM)	
O=C(NNc1ccc(F)cc1F)c1nc(F)ccc1F [Compound 8g]		1.95 (≈ 6.84 µM)	MIC [2]: 31.3 mg/L (≈ 110 µM)
O=C(NNc1cccc(F)c1)c1nc(F)ccc1F [Compound 8a]	1.95		

Structure (SMILES)	MIC [1] [μg/mL^−1]	MIC [3] [mg/L]	further results
COc1cccc(NNC(=O)c2ccccn2)c1 [Compound 2c]	0.98		MIC (C. auris AR Bank #390 (L)): 0.98 μg/mL^−1
O=C(NNc1cccc(F)c1)c1ccc(F)cc1F [Compound 1a]	0.24		
COc1cccc(NNC(=O)c2ccc(F)cc2F)c1 [Compound 1c]		1.95 (≈ 7.01 µM)	
O=C(NNc1ccc(F)cc1)c1ccc(Br)cn1 [Compound 4d]		3.9 (≈ 12.6 µM)	MIC [2]: 7.8 mg/L (≈ 25.2 µM)
O=C(NNc1cc(F)cc(F)c1)c1ccccn1 [Compound 2i]		0.49 (≈ 1.97 µM)	MIC [5]: 0.49 mg/L (≈ 1.97 µM)
C[C@@H]1[C@H](O)[C@@H](C)/C=C/C=C/C=C/C=C/C=C/C=C/C=C/[C@H](O[C@@H]2O[C@H](C)[C@@H](O)[C@H](N)[C@@H]2O)C[C@@H]2O[C@](O)(C[C@@H](O)C[C@@H](O)[C@H](O)CC[C@@H](O)C[C@@H](O)CC(=O)O[C@H]1C)C[C@H](O)[C@H]2C(=O)O [AmB, amphotericin B, reference compound]	1.95		MIC (C. auris AR Bank #390 (L)): 1.95 μg/mL^−1; MIC [4]: 1.95 μg/mL^−1
O=C(NNc1cccc(F)c1)c1cccc(F)n1 [Compound 5a]	3.9		
COc1ccc(NNC(=O)c2nc(F)ccc2F)cc1 [Compound 8f]		0.98 (≈ 3.51 µM)	MIC [2]: 31.3 mg/L (≈ 112 µM)
O=C(NNc1ccc(F)cc1)c1ncc(F)cc1F [Compound 7d]		0.98 (≈ 3.67 µM)	MIC [2]: 3.9 mg/L (≈ 14.6 µM)
COc1ccc(NNC(=O)c2ncc(F)cc2F)cc1 [Compound 7f]		0.98 (≈ 3.51 µM)	MIC [2]: 31.3 mg/L (≈ 112 µM)
O=C(NNc1ccc(F)cc1F)c1ccc(F)cn1 [Compound 3g]		3.9 (≈ 14.6 µM)	MIC [2]: 3.9 mg/L (≈ 14.6 µM)
COc1cccc(NNC(=O)c2cnccn2)c1 [Compound 9c]		0.98 (≈ 4.01 µM)	MIC [5]: 0.98 mg/L (≈ 4.01 µM)
O=C(NNc1ccc(F)cc1)c1ccc(F)cc1F [Compound 1d]		1.95 (≈ 7.32 µM)	
O=C(NNc1cccc(F)c1)c1ncc(F)cc1F [Compound 7a]	1.95		
O=C(NNc1cc(F)ccc1F)c1cnccn1 [Compound 9h]		1.95 (≈ 7.79 µM)	
O=C(NNc1cc(F)cc(F)c1)c1ccc(F)cc1F [Compound 1i]		15.6 (≈ 54.9 µM)	
O=C(NNc1cccc(F)c1)c1ccc(Br)cn1 [Compound 4a]	1.95		
COc1cccc(NNC(=O)c2ncc(F)cc2F)c1 [Compound 7c]		15.6 (≈ 55.9 µM)	
COc1ccc(NNC(=O)c2ccccn2)cc1 [Compound 2f]		0.12 (≈ 0.493 µM)	MIC [5]: 0.12 mg/L (≈ 0.493 µM)
O=C(NNc1ccc(F)cc1)c1cnccn1 [Compound 9d]		0.98 (≈ 4.22 µM)	
